Data on two molecules can be found in patent US4365989A, “2-Thiocyanomethylthio-4,4-dialkyl-5-substituted-thiazoline fungicides” (Chevron Research Company, priority 1982, dated 1982).

One experiment deals with Plasmopara viticola. Put plainly: Grape Downy Mildew control, detached grape leaves. The experiment is classed as in vivo. Conditions: in Vitis vinifera, Vitis vinifera Emperor detached leaves, read-out: % Control Grape D.M. How it is done: The compounds of the invention were tested for the control of the grape downy mildew organism Plasmopara viticola. Detached leaves, between 70 and 85 mm in diameter, of 7-week old Vitis vinifera cultivar Emperor grape seedlings were used as hosts. The leaves were sprayed with a 250 ppm solution of the test compound in acetone. The sprayed leaves were dried, inoculated with a spore suspension of the organism, placed in a humid environmental chamber and incubated at 66° to 68° F. and about 100% relative humidity. After incubation for two days, the plants were then held in a greenhouse seven to nine days; then the amount of disease control was determined. The percent disease control provided by a given gest compound was based on the percent disease reduction relative to untreated check plants.

The next experiment relates to Phytophthora infestans. Put plainly: whole plant or invertebrate. Conditions: in Solanum lycopersicum, read-out: % Control Tom. L. Bl. The experiment is classed as in vivo.
The next experiment concerns Septoria apii. The experiment is classed as in vivo. Conditions: 250 ppm; celery (Utah) plants.
The subject of a further experiment is Pythium Ultimum. Put plainly: Mycelial inhibition, Pythium. The experiment is classed as cell-based. The conditions noted are these: Globisporangium ultimum, 24 hours, relative to standard DIFOLATAN
The method, then: (§1) A number of the compounds of the present invention were evaluated for in-vitro fungicidal effectiveness by means of a mycelial inhibition test. This test is designed to measure the fungitoxic activity of fungicidal chemicals in terms of their degree of inhibition of mycelium growth. Each compound to be tested was dissolved in acetone to 500 ppm concentration. Paper strips were infused with the particular mycelium growth by covering the paper with a potato dextrose broth culture of mycelial suspension. The papers were then placed on potato dextrose agar plates and sprayed by means of a microsprayer with the fungicidal solution. The treated paper strips were incubated at 25° C. and the data is taken after 24 hours. Fungicidal activities are measured by a zone of inhibited mycelial growth from the center of the paper strip. The effectiveness of the compounds tested for fungicidal activity is reported in Table IIa for those compounds which were effective in inhibiting mycelial growth. The activity is reported in terms of [formula]

The subject of the next experiment is Rhizoctonia solani. The experiment can be described thus: Mycelial inhibition, Rhizoctonia. The experiment is classed as cell-based. The conditions noted are these: 24 hours, relative to standard DIFOLATAN, read-out: Mycelial inhibition, % Standard, Rhizoc. How it is done: as §1
The next experiment has as its system Fusarium Moniliforme. Put plainly: Mycelial inhibition, Fusarium. The experiment is classed as cell-based. Conditions: Fusarium verticillioides, 24 hours, relative to standard DIFOLATAN
The method, then: as §1

In the next experiment the test system is Botrytis Cineria. Put plainly: Mycelial inhibition, Botrytis. The conditions noted are these: 24 hours, relative to standard DIFOLATAN
The experiment is classed as cell-based. How it is done:
as §1

In the next experiment the test system is Aspergillus Niger. Put plainly: Mycelial inhibition, Aspergillus. The experiment is classed as cell-based. Conditions: 24 hours, relative to standard DIFOLATAN, read-out: Mycelial inhibition, % Standard, Asper. The method, then: as §1
In experiment [1] the test system is Lambsquarter (Chenopodium album). Put plainly: Pre-emergent herbicidal test, Lambsquarter. The experiment is classed as in vivo. The conditions noted are these: 504 h, pre-emergence, 33 micrograms/cm^2, 3 weeks, read-out: Herbicidal Activity Pre-Emergence % Control L'Qtr. How it is done:
(§2) An acetone solution of the test compound was prepared by mixing 750 mg of the compound, 220 mg of a nonionic surfactant and 25 ml of acetone. This solution was added to approximately 125 ml of water containing 156 mg of surfactant.
(§3) Seeds of the test vegetation were planted in a pot of […] and the test solution was sprayed uniformly onto the soil surface at a dose of 33 micrograms/cm^2. The pot was watered and placed in a greenhouse. […] At the end of this period, the herbicidal effectiveness of the compound was rated based on the physiological observations. A 0-to-100 scale was used, 0 representing no phytotoxicity, 100 representing complete kill.

The test system is the same in experiment [2]. Put plainly: Post-emergent herbicidal test, Lambsquarter. The experiment is classed as in vivo. Conditions: 504 h, post-emergence, 33 micrograms/cm^2, 3 weeks, read-out: Herbicidal Activity Post-Emergence % Control L'Qtr.
For experiment [3], the system named is Mustard (Brassica arvensis). Put plainly: Pre-emergent herbicidal test, Mustard. The experiment is classed as in vivo. Conditions: 504 h, pre-emergence, 33 micrograms/cm^2, 3 weeks. The method, then:
as §2, §3

Experiment [4] relates to Mustard (Brassica arvensis). The experiment can be described thus: Post-emergent herbicidal test, Mustard. The conditions noted are these: 504 h, post-emergence, 33 micrograms/cm^2, 3 weeks. The experiment is classed as in vivo.
Experiment [5] has as its system Pigweed (Amaranthus retraflexus). The experiment can be described thus: Pre-emergent herbicidal test, Pigweed. The experiment is classed as in vivo. The conditions noted are these: 504 h, pre-emergence, 33 micrograms/cm^2, 3 weeks. The method, then: as §2, §3
Experiment [6] shares this test system. Put plainly: Post-emergent herbicidal test, Pigweed. Conditions: 504 h, post-emergence, 33 micrograms/cm^2, 3 weeks. The experiment is classed as in vivo.
Experiment [7] has as its system Crabgrass (Digitaria sanguinalis). The experiment can be described thus: Pre-emergent herbicidal test, Crabgrass. The experiment is classed as in vivo. Conditions: 504 h, pre-emergence, 33 micrograms/cm^2, 3 weeks. How it is done:
as §2, §3

Experiment [8] has the same test system. Put plainly: Post-emergent herbicidal test, Crabgrass. The experiment is classed as in vivo. The conditions noted are these: 504 h, post-emergence, 33 micrograms/cm^2, 3 weeks.
Experiment [9] has as its system Watergrass (Ethinochloa crusgalli). Put plainly: Pre-emergent herbicidal test, Watergrass. The conditions noted are these: 504 h; pre-emergence; 33 micrograms/cm^2; 3 weeks. The experiment is classed as in vivo. The method, then: as §2, §3
Experiment [10] shares this test system. Put plainly: Post-emergent herbicidal test, Watergrass. The experiment is classed as in vivo. Conditions: 504 h; post-emergence; 33 micrograms/cm^2; 3 weeks.
Experiment [11] deals with Soybean. The experiment can be described thus: Pre-emergent herbicidal test, Soybean. Conditions: Glycine max, 504 h; pre-emergence; 33 micrograms/cm^2; 3 weeks; read-out: Herbicidal Activity Pre-Emergence % Control Soybean. The experiment is classed as in vivo. The method, then: as §2, §3
Experiment [12] deals with Soybean. Put plainly: Post-emergent herbicidal test, Soybean. The experiment is classed as in vivo. The conditions noted are these: Glycine max, 504 h; post-emergence; 33 micrograms/cm^2; 3 weeks; read-out: Herbicidal Activity Post-Emergence % Control Soybean.
Another experiment deals with Spirulina maxima. The experiment can be described thus: Algae control, Spirulina. The experiment is classed as cell-based. Conditions: Limnospira maxima, 7 to 10 days, read-out: Algicidal Activity % Control Spirulina. How it is done: (§4) Representative compounds of the invention were tested as aquatic herbicides and algicides by the following method. The weed test species were Lemna minor, Elodea canadensis and the algae used was Spirulina maxima.
(§5) An acetone solution of the test compound and a small amount of an alkylarylpolyoxyethylene glycol-containing surfactant was prepared. This solution was mixed with a nutrient solution in quantity sufficient to give a concentration of 2 ppm. Eight oz. plastic cups were filled with 150 ml of this solution. A sample of the test, Lemna and Elodea, was added together to each cup. Forty ml of Spirulina culture with the 2 ppm treatment was placed in 11/2 oz plastic cups (#4 glass vials used after June 9, 1980). The containers were then placed in an illuminated environment maintained at a temperature of about 20° C. for incubation. The containers were observed periodically for growth (as compared to an untreated check). The effectiveness of the test compound was determined based on a final observation of growth after 7 to 10 days. The results of the test on a 0-to-100 basis--0 indicating no effectiveness and 100 indicating complete effectiveness--are reported in Table IV.

For the next experiment, the system named is Lemna minor. The experiment can be described thus: Aquatic weeds control, Lemna. The experiment is classed as in vivo. Conditions: 7 to 10 days, read-out: Algicidal Activity % Control Lemna. How it is done: as §4, §5
In the next experiment the test system is Elodea canadensis. The experiment can be described thus: Aquatic weeds control, Elodea. Conditions: 7 to 10 days, read-out: Algicidal Activity % Control Elodea. The experiment is classed as in vivo. The method, then: as §4, §5

Broadly, the inhibition is the relative decrease from the control value, in per cent.

Turning to `CC1(C)N=C(SCSC#N)SC1=CCl` [Compound 3], the pest or weed control at 250 ppm in the experiment on Plasmopara viticola stood at 79%; with Phytophthora infestans, 21%. The “% Control Cel. L. Bl.” value in the experiment on Septoria apii amounted to 15%. Besides, the inhibition at 500 ppm in the experiment with Pythium Ultimum was determined as 40%; in the experiment on Rhizoctonia solani, 55%; in the experiment with Fusarium Moniliforme, 115%; in the experiment with Botrytis Cineria, 64%; in the experiment with Aspergillus Niger it was 69%. The pest or weed control at 33 µg/cm2 came to 25% in [1]; 0% in experiment [2]; 15% in experiment [3]; 0% in experiment [4]; 35% in experiment [5]; 0% in experiment [6]. The pest or weed control at 33 µg/cm2 in experiment [7], in experiment [8], in experiment [9] and in [10] was 0% each time. Further, the plant injury at 33 µg/cm2 in the experiment on Soybean [11] and with Soybean [12] was 0% each time. In addition, the activity at 2 ppm stood at 40% in the experiment with Spirulina maxima, 40% with Lemna minor and 90% in the experiment on Elodea canadensis.

Take `CC1(C)N=C(SCSC#N)SC1=CBr` [Compound 4]: the results for the pest or weed control at 250 ppm with Plasmopara viticola and with Phytophthora infestans were 100% and 0%, respectively. Moreover, in the experiment with Septoria apii, the “% Control Cel. L. Bl.” value was 23%. In addition, the inhibition at 500 ppm stood at 14% in the experiment on Pythium Ultimum; 92% with Rhizoctonia solani; 77% in the experiment on Fusarium Moniliforme; 36% with Botrytis Cineria; 63% in the experiment with Aspergillus Niger. Also, the pest or weed control at 33 µg/cm2 in experiment [1], in experiment [2], in [3], in experiment [4], in experiment [5] and in experiment [6] was 0% throughout. For the same molecule, the pest or weed control at 33 µg/cm2 in experiment [7], in experiment [8], in experiment [9] and in experiment [10] was 0% in each case. For the same molecule, the plant injury at 33 µg/cm2 with Soybean [11] and with Soybean [12] was 0% each time. Further, the activity at 2 ppm in the experiment on Spirulina maxima was 30%; in the experiment with Lemna minor, 35%; with Elodea canadensis, 80%.
